In PubChem BioAssay (NCI):
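The compound was tested at five concentrations on cells cultured in 96-well plates, with a 48-hour exposure period. GI50 is the concentration that inhibits growth by half. Definition used: TGI = concentration required for complete inhibition of growth.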

Columns and labels:
Assay in all cases: growth of human tumour cells (NCI), 48 h
[1] = test system: COLO 205 colon
[2] = test system: SNB-19 CNS
[3] = test system: CAKI-1 renal
[4] = test system: SF-268 CNS
[5] = test system: SF-295 CNS
[6] = test system: K-562 leukemia
[7] = test system: NCI/ADR-RES ovarian
[8] = test system: NCI-H522 lung
[9] = test system: LOX IMVI melanoma
[10] = test system: MALME-3M melanoma
[11] = test system: MCF7 breast
[12] = test system: MOLT-4 leukemia
[13] = test system: SW-620 colon
[14] = test system: RPMI-8226 leukemia
[15] = test system: BT-549 breast
[16] = test system: T-47D breast
[17] = test system: UACC-257 melanoma
[18] = test system: 786-0 renal
[19] = test system: HOP-92 NSCLC
[20] = test system: OVCAR-5 ovarian
[21] = test system: SN12C renal
[22] = test system: A549 NSCLC
[23] = test system: OVCAR-3 ovarian
[24] = test system: U251 CNS
[25] = test system: UO-31 renal
[26] = test system: IGROV1 ovarian
[27] = test system: TK-10 renal
[28] = test system: UACC-62 melanoma
[29] = test system: EKVX NSCLC
[30] = test system: OVCAR-8 ovarian
[31] = test system: HCT-15 colon
[32] = test system: SK-MEL-2 melanoma
[33] = test system: SK-MEL-28 melanoma
[34] = test system: HL-60(TB) leukemia
[35] = test system: CCRF-CEM leukemia
[36] = test system: NCI-H460 lung
[37] = test system: SK-MEL-5 melanoma
[38] = test system: NCI-H23 lung
[39] = test system: SF-539 CNS
[40] = test system: HS 578T breast
[41] = test system: M14 melanoma
[42] = test system: PC-3 prostate
[43] = test system: ACHN renal
[44] = test system: SK-OV-3 ovarian
[45] = test system: HOP-62 NSCLC
[46] = test system: NCI-H226 lung
[47] = test system: OVCAR-4 ovarian
[48] = test system: HCT-116 colon
[49] = test system: MDA-MB-231 breast
[50] = test system: HT29 colon
[51] = test system: A498 renal
[52] = test system: SNB-75 CNS
[53] = test system: MDA-MB-435
[54] = test system: HCC-2998 colon
[55] = test system: KM12 colon
[56] = test system: DU-145 prostate
[57] = test system: SR leukemia
[58] = test system: RXF 393 renal

In the case of `COC(=O)c1oc2c(C(C)=O)c(OCCN3CCOCC3)c(OC)cc2c1C`, the GI50 [1] is reported as over 100 µM, the TGI [1] is reported as over 100 µM and the GI50 [2] is reported as over 100 µM. The TGI [2] was over 100 µM, the GI50 [3] was over 100 µM and the TGI [3] was over 100 µM. The GI50 [4] was over 100 µM, the TGI [4] was over 100 µM and the GI50 [5] was over 100 µM. For the same molecule, the TGI [5] was over 100 µM, the GI50 [6] was over 100 µM and the TGI [6] was over 100 µM. The GI50 [7] was over 100 µM, the TGI [7] was over 100 µM and the GI50 [8] was over 100 µM. It also gave a TGI [8] of over 100 µM, a GI50 [9] of over 100 µM and a TGI [9] of over 100 µM. For the same molecule, the GI50 [10] was over 100 µM, the TGI [10] was over 100 µM and the GI50 [11] was over 100 µM. For the same molecule, the TGI [11] was over 100 µM, the GI50 [12] was over 100 µM and the TGI [12] was over 100 µM. For the same molecule, the GI50 [13] was over 100 µM, the TGI [13] was over 100 µM and the GI50 [14] was over 100 µM. For the same molecule, the TGI [14] was over 100 µM, the GI50 [15] was over 100 µM and the TGI [15] was over 100 µM. It also gave a GI50 [16] of over 100 µM, a TGI [16] of over 100 µM and a GI50 [17] of over 100 µM. It also gave a TGI [17] of over 100 µM, a GI50 [18] of over 100 µM and a TGI [18] of over 100 µM. It also gave a GI50 [19] of over 100 µM, a TGI [19] of over 100 µM and a GI50 [20] of over 100 µM. For the same molecule, the TGI [20] was over 100 µM, the GI50 [21] was over 100 µM and the TGI [21] was over 100 µM. For the same molecule, the GI50 [22] was over 100 µM, the TGI [22] was over 100 µM and the GI50 [23] was over 100 µM. The TGI [23] was over 100 µM, the GI50 [24] was over 100 µM and the TGI [24] was over 100 µM. The GI50 [25] was over 100 µM, the TGI [25] was over 100 µM and the GI50 [26] was over 100 µM. The TGI [26] was over 100 µM, the GI50 [27] was over 100 µM and the TGI [27] was over 100 µM. For the same molecule, the GI50 [28] was over 100 µM, the TGI [28] was over 100 µM and the GI50 [29] was over 100 µM. It also gave a TGI [29] of over 100 µM, a GI50 [30] of over 100 µM and a TGI [30] of over 100 µM. It also gave a GI50 [31] of over 100 µM, a TGI [31] of over 100 µM and a GI50 [32] of over 100 µM. The TGI [32] was over 100 µM, the GI50 [33] was over 100 µM and the TGI [33] was over 100 µM. The GI50 [34] was over 100 µM, the TGI [34] was over 100 µM and the GI50 [35] was over 100 µM. For the same molecule, the TGI [35] was over 100 µM, the GI50 [36] was over 100 µM and the TGI [36] was over 100 µM. It also gave a GI50 [37] of over 100 µM, a TGI [37] of over 100 µM and a GI50 [38] of over 100 µM. For the same molecule, the TGI [38] was over 100 µM, the GI50 [39] was over 100 µM and the TGI [39] was over 100 µM. For the same molecule, the GI50 [40] was over 100 µM, the TGI [40] was over 100 µM and the GI50 [41] was over 100 µM. For the same molecule, the TGI [41] was over 100 µM, the GI50 [42] was over 100 µM and the TGI [42] was over 100 µM. For the same molecule, the GI50 [43] was over 100 µM, the TGI [43] was over 100 µM and the GI50 [44] was over 100 µM. It also gave a TGI [44] of over 100 µM, a GI50 [45] of over 100 µM and a TGI [45] of over 100 µM. The GI50 [46] was over 100 µM, the TGI [46] was over 100 µM and the GI50 [47] was over 100 µM. The TGI [47] was over 100 µM, the GI50 [48] was over 100 µM and the TGI [48] was over 100 µM. The GI50 [49] was over 100 µM, the TGI [49] was over 100 µM and the GI50 [50] was over 100 µM. For the same molecule, the TGI [50] was over 100 µM, the GI50 [51] was over 100 µM and the TGI [51] was over 100 µM. The GI50 [52] was over 100 µM, the TGI [52] was over 100 µM and the GI50 [53] was over 100 µM. It also gave a TGI [53] of over 100 µM, a GI50 [54] of over 100 µM and a TGI [54] of over 100 µM.

In the case of `C[C@H](Nc1ccc2c(c1)OCCn1cc(N3C(=O)OC[C@H]3C(F)F)nc1-2)C(N)=O`, the GI50 [1] is reported as 2.3 µM, the TGI [1] is reported as over 100 µM and the GI50 [2] is reported as 25.3 µM. The TGI [2] was over 100 µM, the GI50 [3] was 4.88 µM and the TGI [3] was over 100 µM. It also gave a GI50 [4] of 29 µM, a TGI [4] of over 100 µM and a GI50 [5] of 7.8 µM. The TGI [5] was over 100 µM, the GI50 [6] was over 100 µM and the TGI [6] was over 100 µM. The GI50 [7] was over 69.9 µM, the TGI [7] was over 100 µM and the GI50 [8] was over 100 µM. For the same molecule, the TGI [8] was over 100 µM, the GI50 [9] was 4.8 µM and the TGI [9] was 40.4 µM. The GI50 [10] was over 20.7 µM, the TGI [10] was over 100 µM and the GI50 [11] was 0.0354 µM. The TGI [11] was over 100 µM, the GI50 [12] was 2.89 µM and the TGI [12] was over 100 µM. It also gave a GI50 [13] of 20.5 µM, a TGI [13] of over 100 µM and a GI50 [14] of 31.3 µM. It also gave a TGI [14] of over 100 µM, a GI50 [15] of 5.4 µM and a TGI [15] of over 100 µM. It also gave a GI50 [17] of 11.5 µM, a TGI [17] of over 100 µM and a GI50 [18] of 9.95 µM. For the same molecule, the TGI [18] was over 100 µM, the GI50 [19] was 0.183 µM and the TGI [19] was 16.4 µM. For the same molecule, the GI50 [20] was 0.421 µM, the TGI [20] was over 82.6 µM and the GI50 [21] was 13 µM. For the same molecule, the TGI [21] was over 100 µM, the GI50 [22] was 4.82 µM and the TGI [22] was over 100 µM. The GI50 [55] was 46.9 µM, the TGI [55] was over 100 µM and the GI50 [56] was 20.3 µM. The TGI [56] was over 100 µM, the GI50 [23] was 6.26 µM and the TGI [23] was over 100 µM. It also gave a GI50 [24] of over 77.6 µM, a TGI [24] of over 100 µM and a GI50 [25] of 1.57 µM. The TGI [25] was over 100 µM, the GI50 [26] was 0.0199 µM and the TGI [26] was 0.215 µM. It also gave a GI50 [27] of 0.517 µM, a TGI [27] of over 91.2 µM and a GI50 [28] of 3.05 µM. For the same molecule, the TGI [28] was over 100 µM, the GI50 [29] was 4.91 µM and the TGI [29] was over 100 µM. It also gave a GI50 [30] of over 68.3 µM, a TGI [30] of over 100 µM and a GI50 [31] of 0.52 µM. For the same molecule, the TGI [31] was over 100 µM, the GI50 [32] was over 100 µM and the TGI [32] was over 100 µM. The GI50 [33] was 7.3 µM, the TGI [33] was over 100 µM and the GI50 [34] was 0.413 µM. The TGI [34] was over 100 µM, the GI50 [35] was 7.93 µM and the TGI [35] was over 100 µM. The GI50 [36] was 1.08 µM, the TGI [36] was over 100 µM and the GI50 [37] was 20.8 µM. It also gave a TGI [37] of over 100 µM, a GI50 [38] of 38.5 µM and a TGI [38] of over 100 µM. It also gave a GI50 [39] of 3.12 µM, a TGI [39] of 43.8 µM and a GI50 [40] of 1.77 µM. For the same molecule, the TGI [40] was 68.1 µM, the GI50 [41] was 68.5 µM and the TGI [41] was over 100 µM. It also gave a GI50 [42] of 3.81 µM, a TGI [42] of over 100 µM and a GI50 [43] of 5 µM. For the same molecule, the TGI [43] was over 100 µM, the GI50 [57] was 38.6 µM and the TGI [57] was over 100 µM. For the same molecule, the GI50 [44] was 0.0307 µM, the TGI [44] was 0.809 µM and the GI50 [45] was 17.5 µM. For the same molecule, the TGI [45] was over 100 µM, the GI50 [46] was over 62 µM and the TGI [46] was over 100 µM. It also gave a GI50 [47] of 79.4 µM, a TGI [47] of over 100 µM and a GI50 [48] of 17.1 µM. It also gave a TGI [48] of over 100 µM, a GI50 [58] of 5.56 µM and a TGI [58] of 45.8 µM. It also gave a GI50 [49] of 16.4 µM, a TGI [49] of 65.3 µM and a GI50 [50] of 0.153 µM. For the same molecule, the TGI [50] was over 100 µM, the GI50 [51] was 2.09 µM and the TGI [51] was 10.2 µM. It also gave a GI50 [52] of 0.0619 µM, a TGI [52] of 5.12 µM and a GI50 [53] of 25.6 µM. For the same molecule, the TGI [53] was over 100 µM, the GI50 [54] was 1.92 µM and the TGI [54] was over 100 µM.
